Common to all, as to assay type: biochemical
The target of one test is FAAH (Mus musculus (Mouse), UniProt O08914). The test can be described thus: In vitro competitive activity-based protein profiling (mouse brain membrane fraction or cell lysates), FAAH band. The following applies: mouse proteome; for inhibition at 1 µM: read-out: FAAH % Inh 1 μM (mouse); for IC50: competitive ABPP. The procedure:
(§1) In Vitro Competitive Activity-Based Protein Profiling.
(§2) Proteomes (mouse brain membrane fraction or cell lysates) (50 μL, 1.0 mg/mL total protein concentration) were preincubated with varying concentrations of inhibitors at 37° C. After 30 min, FP—Rh (1.0 μL, 50 μM in DMSO) was added and the mixture was incubated for another 30 min at 37° C. Reactions were quenched with SDS loading buffer (50 μL-4×) and run on SDS-PAGE. Following gel imaging, serine hydrolase activity was determined by measuring fluorescent intensity of gel bands corresponding to MAGL, ABHD6 and FAAH using ImageJ 1.43u software.

The target in the next test is MAGL (Mus musculus (Mouse), UniProt O35678). The test can be described thus: In vitro competitive activity-based protein profiling (mouse brain membrane fraction or cell lysates), MAGL band. The settings on record: mouse proteome; for inhibition at 1 µM: read-out: MAGL % Inh 1 μM (mouse); for IC50: competitive ABPP. The method, then: as §1
MAGL, sequence (O35678 whole entry): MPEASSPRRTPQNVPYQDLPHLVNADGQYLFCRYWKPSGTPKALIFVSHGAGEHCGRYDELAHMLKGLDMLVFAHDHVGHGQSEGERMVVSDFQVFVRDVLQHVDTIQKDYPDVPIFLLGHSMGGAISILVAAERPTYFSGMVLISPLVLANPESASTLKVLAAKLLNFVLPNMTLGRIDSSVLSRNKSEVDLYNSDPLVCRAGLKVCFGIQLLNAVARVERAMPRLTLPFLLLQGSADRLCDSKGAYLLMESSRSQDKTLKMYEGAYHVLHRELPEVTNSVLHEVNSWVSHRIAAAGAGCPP
Proteomes (mouse brain membrane fraction or cell lysates) (50 μL, 1.0 mg/mL total protein concentration) were preincubated with varying concentrations of inhibitors at 37° C. After 30 min, FP—Rh (1.0 μL, 50 μM in DMSO) was added and the mixture was incubated for another 30 min at 37° C. Reactions were quenched with SDS loading buffer (50 μL-4×) and run on SDS-PAGE.

A further test deals with ABHD6 (Mus musculus (Mouse), UniProt Q8R2Y0). The test can be described thus: In vitro competitive activity-based protein profiling (mouse brain membrane fraction or cell lysates), ABHD6 band. The following applies: mouse proteome; for inhibition at 1 µM: read-out: ABHD6 % Inh 1 μM (mouse); for IC50: competitive ABPP. The method, then:
as §1, §2

As usually defined, the IC50 is the concentration needed to halve the response being measured.

ABHD6, sequence (Q8R2Y0 whole entry): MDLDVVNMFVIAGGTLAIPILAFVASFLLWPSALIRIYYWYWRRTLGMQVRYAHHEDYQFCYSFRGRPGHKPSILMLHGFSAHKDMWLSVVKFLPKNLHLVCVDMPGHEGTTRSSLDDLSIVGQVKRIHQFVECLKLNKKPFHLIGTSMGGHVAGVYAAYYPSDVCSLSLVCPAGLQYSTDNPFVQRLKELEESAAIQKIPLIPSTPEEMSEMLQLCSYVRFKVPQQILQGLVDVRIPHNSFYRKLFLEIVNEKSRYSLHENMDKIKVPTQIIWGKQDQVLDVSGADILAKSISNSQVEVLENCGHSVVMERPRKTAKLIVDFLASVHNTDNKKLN
FAAH, sequence (O08914 whole entry): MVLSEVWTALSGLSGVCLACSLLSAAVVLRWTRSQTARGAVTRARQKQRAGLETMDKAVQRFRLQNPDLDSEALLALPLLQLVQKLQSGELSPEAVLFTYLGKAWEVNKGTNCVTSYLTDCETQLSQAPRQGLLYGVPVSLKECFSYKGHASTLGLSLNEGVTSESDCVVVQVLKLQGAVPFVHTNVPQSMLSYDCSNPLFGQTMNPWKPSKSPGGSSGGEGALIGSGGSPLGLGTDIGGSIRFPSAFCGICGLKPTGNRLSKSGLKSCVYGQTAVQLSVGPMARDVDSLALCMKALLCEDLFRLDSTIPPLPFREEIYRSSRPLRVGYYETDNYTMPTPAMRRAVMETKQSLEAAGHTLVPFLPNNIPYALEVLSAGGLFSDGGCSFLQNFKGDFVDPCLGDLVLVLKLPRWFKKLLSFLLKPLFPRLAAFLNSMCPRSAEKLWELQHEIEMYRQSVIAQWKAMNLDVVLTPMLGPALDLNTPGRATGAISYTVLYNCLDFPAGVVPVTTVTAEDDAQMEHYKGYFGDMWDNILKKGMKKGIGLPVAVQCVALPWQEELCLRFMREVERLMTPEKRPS

Take `O=C(OC(C(F)(F)F)C(F)(F)F)N1CCC2(CCCN2Cc2cc(N3CCN(C4CC4)CC3)cc(C(F)(F)F)c2)CC1` [Example 41, 1,1,1,3,3,3-Hexafluoropropan-2-yl 1-(3-(4-cyclopropylpiperazin-1-yl)-5-(trifluoromethyl)benzyl)-1,8-diazaspiro[4.5]decane-8-carboxylate]: the inhibition at 1 µM was under 25% on FAAH, over 75% on MAGL and under 25% at ABHD6. The 50% inhibitory concentration (IC50) was over 1000 nM at FAAH, under 100 nM at MAGL and over 1000 nM on ABHD6.
For `COc1cc(Cl)ccc1CN1CC2(CCN(C(=O)OC(C(F)(F)F)C(F)(F)F)CC2)CC1(C)C` [Example 49, 1,1,1,3,3,3-Hexafluoropropan-2-yl 2-(4-chloro-2-methoxybenzyl)-3,3-dimethyl-2,8-diazaspiro[4.5]decane-8-carboxylate], the inhibition at 1 µM on FAAH is under 25%; at MAGL, over 75%; at ABHD6, under 25%. Also, the IC50 on FAAH and on ABHD6 was over 1000 nM throughout.
`CC1(C)CC2(CCN(C(=O)OC(C(F)(F)F)C(F)(F)F)CC2)CN1Cc1ccc(C(F)(F)F)cc1N1CC2COCC2C1` (centres unmarked) [Example 55, 1,1,1,3,3,3-Hexafluoropropan-2-yl 3,3-dimethyl-2-(2-(tetrahydro-1H-furo[3,4-c]pyrrol-5(3H)-yl)-4-(trifluoromethyl)benzyl)-2,8-diazaspiro[4.5]decane-8-carboxylate]: the values for the inhibition at 1 µM at FAAH, at MAGL and on ABHD6 were under 25%, over 75% and under 25%, respectively. Also, the IC50 on FAAH is over 1000 nM; on MAGL, under 100 nM; on ABHD6, over 1000 nM.
For the compound `CC1(C)CC2(CCN(C(=O)OC(C(F)(F)F)C(F)(F)F)CC2)CN1Cc1c(N2CCC3(CCOCC3)C2)cccc1C(F)(F)F` [Example 56, 1,1,1,3,3,3-Hexafluoropropan-2-yl 2-(2-(8-oxa-2-azaspiro[4.5]decan-2-yl)-6-(trifluoromethyl)benzyl)-3,3-dimethyl-2,8-diazaspiro[4.5]decane-8-carboxylate], the results for the inhibition at 1 µM on FAAH, at MAGL and on ABHD6 were under 25%, 25 to 75% and under 25%, respectively. Moreover, the IC50 at FAAH is over 1000 nM; at MAGL it was 100 to 1000 nM; at ABHD6 it was over 1000 nM.
Consider `CC1(C)CC2(CCN(C(=O)OC(C(F)(F)F)C(F)(F)F)CC2)CN1Cc1c(N2CC3COCC3C2)cccc1C(F)(F)F` (centres unmarked) [Example 57, 1,1,1,3,3,3-Hexafluoropropan-2-yl 3,3-dimethyl-2-(2-(tetrahydro-1H-furo[3,4-c]pyrrol-5(3H)-yl)-6-(trifluoromethyl)benzyl)-2,8-diazaspiro[4.5]decane-8-carboxylate], for which the values for the inhibition at 1 µM at FAAH, at MAGL and on ABHD6 were under 25%, over 75% and under 25%, respectively. The IC50 on FAAH and at ABHD6 was over 1000 nM throughout.
Take `O=C(OC(C(F)(F)F)C(F)(F)F)N1CCC2(CCN(Cc3cccc(N4CCCC4)c3)C2)CC1` [Example 58, 1,1,1,3,3,3-Hexafluoropropan-2-yl 2-(3-(pyrrolidin-1-yl)benzyl)-2,8-diazaspiro[4.5]decane-8-carboxylate]: the inhibition at 1 µM on FAAH was under 25%; at MAGL, over 75%; at ABHD6 it was at least 75%. Also, the IC50 is over 1000 nM at FAAH, 100 to 1000 nM at MAGL and 100 to 1000 nM at ABHD6.
As to `O=C(OC(C(F)(F)F)C(F)(F)F)N1CCC2(CCN(Cc3c(N4CCCC4)cccc3C(F)(F)F)C2)CC1` [Example 59, 1,1,1,3,3,3-Hexafluoropropan-2-yl 2-(2-(pyrrolidin-1-yl)-6-(trifluoromethyl)benzyl)-2,8-diazaspiro[4.5]decane-8-carboxylate], the inhibition at 1 µM on FAAH is under 25%; at MAGL it was over 75%; at ABHD6, under 25%. Moreover, the IC50 on FAAH is over 1000 nM; at MAGL, 100 to 1000 nM; on ABHD6, over 1000 nM.
In the case of `O=C(OC(C(F)(F)F)C(F)(F)F)N1CCC2(CCCN2Cc2ccccc2)CC1` [Example 63, 1,1,1,3,3,3-Hexafluoropropan-2-yl 1-benzyl-1,8-diazaspiro[4.5]decane-8-carboxylate], the inhibition at 1 µM on FAAH was under 25%; at MAGL it was over 75%; on ABHD6, under 25%. Moreover, the IC50 at FAAH and on ABHD6 was over 1000 nM each time.
In the case of `O=C(OC(C(F)(F)F)C(F)(F)F)N1CCC2(CCCN2Cc2cccc(N3CCOCC3)c2)CC1` [Example 69, 1,1,1,3,3,3-Hexafluoropropan-2-yl 1-(3-morpholinobenzyl)-1,8-diazaspiro[4.5]decane-8-carboxylate], the values for the inhibition at 1 µM on FAAH, at MAGL and on ABHD6 were under 25%, over 75% and under 25%, respectively. The IC50 on ABHD6 was over 1000 nM.
Turning to `CC(=O)N1CCCc2cccc(CN3CCC4(CCN(C(=O)OC(C(F)(F)F)C(F)(F)F)CC4)C3)c21` [Example 70, 1,1,1,3,3,3-Hexafluoropropan-2-yl 2-((1-acetyl-1,2,3,4-tetrahydroquinolin-8-yl)methyl)-2,8-diazaspiro[4.5]decane-8-carboxylate], the results for the inhibition at 1 µM at FAAH, at MAGL and at ABHD6 were under 25%, over 75% and at least 75%, respectively. Besides, the IC50 on ABHD6 is 100 to 1000 nM.
On to `Cc1c(CN2CCCC23CCN(C(=O)OC(C(F)(F)F)C(F)(F)F)CC3)cccc1N1CCOCC1` [Example 83, 1,1,1,3,3,3-Hexafluoropropan-2-yl 1-(2-methyl-3-morpholinobenzyl)-1,8-diazaspiro[4.5]decane-8-carboxylate], for which the results for the inhibition at 1 µM on FAAH, at MAGL and at ABHD6 were under 25%, over 75% and under 25%, respectively. For the same compound, the IC50 is over 1000 nM at FAAH, under 100 nM on MAGL and over 1000 nM at ABHD6.
For `O=C(OC(C(F)(F)F)C(F)(F)F)N1CCC2(CCCN2Cc2ccc(C(F)(F)F)cc2N2CCS(=O)(=O)CC2)CC1` [Example 92, 1,1,1,3,3,3-Hexafluoropropan-2-yl 1-(2-(1,1-dioxidothiomorpholino)-4-(trifluoromethyl)benzyl)-1,8-diazaspiro[4.5]decane-8-carboxylate], the inhibition at 1 µM at FAAH is under 25%; on MAGL, over 75%; on ABHD6, at least 75%. Besides, the half-inhibitory concentration (IC50) on FAAH was over 1000 nM; at MAGL, under 100 nM; at ABHD6, 100 to 1000 nM.
Turning to `O=C(OC(C(F)(F)F)C(F)(F)F)N1CCC2(CCCN2Cc2ccc(C(F)(F)F)cc2N2CCCCCC2)CC1` [Example 95, 1,1,1,3,3,3-Hexafluoropropan-2-yl 1-(2-(azepan-1-yl)-4-(trifluoromethyl)benzyl)-1,8-diazaspiro[4.5]decane-8-carboxylate], the inhibition at 1 µM on FAAH is under 25%; at MAGL, 25 to 75%; at ABHD6, under 25%. The 50% inhibitory concentration (IC50) is over 1000 nM at FAAH, 100 to 1000 nM on MAGL and over 1000 nM at ABHD6.
On to `CCN1CCN(c2cc(Cl)ccc2CN2CCCC23CCN(C(=O)OC(C(F)(F)F)C(F)(F)F)CC3)CC1` [Example 98, 1,1,1,3,3,3-Hexafluoropropan-2-yl 1-(4-chloro-2-(4-ethylpiperazin-1-yl)benzyl)-1,8-diazaspiro[4.5]decane-8-carboxylate], for which the inhibition at 1 µM on FAAH was under 25%; on MAGL, over 75%; on ABHD6 it was under 25%. Further, the IC50 was over 1000 nM on FAAH, 100 to 1000 nM at MAGL and over 1000 nM on ABHD6.
`O=C(OC(C(F)(F)F)C(F)(F)F)N1CCC2(CCCN2Cc2ccc(Cl)cc2N2CCS(=O)(=O)CC2)CC1` [Example 103, 1,1,1,3,3,3-Hexafluoropropan-2-yl 1-(4-chloro-2-(1,1-dioxidothiomorpholino)benzyl)-1,8-diazaspiro[4.5]decane-8-carboxylate]: the inhibition at 1 µM is under 25% at FAAH, over 75% on MAGL and at least 75% on ABHD6. For the same compound, the IC50 at FAAH is over 1000 nM; on MAGL, 100 to 1000 nM; on ABHD6, 100 to 1000 nM.
Take `O=C(OC(C(F)(F)F)C(F)(F)F)N1CCC2(CCCN2Cc2ccc(Cl)cc2N2CCCCCC2)CC1` [Example 106, 1,1,1,3,3,3-Hexafluoropropan-2-yl 1-(2-(azepan-1-yl)-4-chlorobenzyl)-1,8-diazaspiro[4.5]decane-8-carboxylate]: the inhibition at 1 µM on FAAH was under 25%; on MAGL, over 75%; on ABHD6 it was under 25%. Besides, the IC50 was over 1000 nM at FAAH, 100 to 1000 nM on MAGL and over 1000 nM at ABHD6.
`O=C(OC(C(F)(F)F)C(F)(F)F)N1CCC2(CCCN2Cc2cccc(N3C4CCC3COC4)c2Cl)CC1` [Example 109, 1,1,1,3,3,3-Hexafluoropropan-2-yl 1-(3-(3-oxa-8-azabicyclo[3.2.1]octan-8-yl)-2-chlorobenzyl)-1,8-diazaspiro[4.5]decane-8-carboxylate]: the inhibition at 1 µM on FAAH was under 25%; at MAGL it was over 75%; at ABHD6, under 25%. Also, the IC50 at FAAH was over 1000 nM; at MAGL, under 100 nM; at ABHD6, over 1000 nM.

The values above are taken from patent publication US10030020B2, “Spirocycle compounds and methods of making and using same” (Abide Therapeutics, Inc., priority 2016, dated 2018).
